Four compounds from ChEMBL document CHEMBL1201862, “PubChem BioAssay data set” (2004) can be followed below.

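A five-concentration, 48-hour dose response in 96-well plates underlies each endpoint, interpolated linearly between surrounding concentrations. The concentration for 50% growth inhibition is given as GI50.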 Active and inactive are the calls of the source. Rule as the data show it: active = GI50 up to about 1.1 µM and inactive = higher. Some results are limits rather than exact numbers.

Test systems include SF-539; HCT-15; HCC 2998; Hs-578T; DU-145; LOX IMVI; A549; ACHN; SK-MEL-5; SK-OV-3; MDA-MB-231; EKVX; UACC-257; OVCAR-5; HT-29; PC-3; Malme-3M; U-251; SN12C.
Common to all, as to test: inhibition of tumour cell growth, NCI panel, 48 h

As for `C#Cc1cccc(N2C(=O)CCC2=O)c1`, the GI50 is 21.5 µM (inactive) in the experiment on SF-539; 22.1 µM in the experiment on HCT-15; 15 µM (inactive) with HCC 2998; 17.3 µM (inactive) with Hs-578T; 14.4 µM (inactive) in the experiment on DU-145; 16.8 µM (inactive) with LOX IMVI. In addition, the GI50 is 21.4 µM (inactive) in the experiment with A549; 16.7 µM (inactive) with ACHN; 20.5 µM (inactive) in the experiment on SK-MEL-5; 21 µM (inactive) in the experiment on SK-OV-3; 12.2 µM (inactive) with MDA-MB-231; 18.3 µM (inactive) in the experiment on EKVX. For the same compound, the GI50 is 15.6 µM (inactive) with UACC-257; 16.7 µM (inactive) in the experiment on OVCAR-5; 12.1 µM (inactive) with HT-29; 15.2 µM (inactive) with PC-3; 14.7 µM (inactive) in the experiment on Malme-3M; 1.67 µM (inactive) in the experiment with U-251. In the experiment with SN12C, the GI50 was 18.5 µM (inactive).

Take `COc1ccc(/C=N/NC(=O)O)cc1`: the GI50 in the experiment on SF-539 is > 100 µM (inactive); with HCT-15, over 100 µM; in the experiment with HCC 2998, 88.5 µM (inactive); with Hs-578T, > 100 µM (inactive); with DU-145, > 100 µM (inactive); in the experiment with LOX IMVI, > 100 µM (inactive). Also, the GI50 in the experiment on A549, in the experiment on ACHN, in the experiment on SK-MEL-5, with SK-OV-3, with MDA-MB-231 and in the experiment with EKVX was > 100 µM (inactive) each time. Further, the GI50 in the experiment on UACC-257, with OVCAR-5, in the experiment with HT-29, with PC-3, in the experiment on Malme-3M and in the experiment with U-251 was > 100 µM (inactive) throughout. Moreover, the GI50 with SN12C is > 100 µM (inactive).

Regarding `O=C(NC(C(F)(F)F)(C(F)(F)F)P(=O)(Cc1ccccc1)Cc1ccccc1)C(C(F)(F)F)C(F)(F)F`, the GI50 in the experiment with SF-539 was 20.7 µM (inactive); with HCT-15, 29.4 µM; with HCC 2998 it was 27.5 µM (inactive); with Hs-578T, 55.7 µM (inactive); in the experiment with DU-145 it was 37.8 µM (inactive); with LOX IMVI it was 18.1 µM (inactive). Also, the GI50 in the experiment on A549 is 25.9 µM (inactive); in the experiment on ACHN it was 19.7 µM (inactive); with SK-MEL-5, 15.4 µM (inactive); with SK-OV-3 it was 31.8 µM (inactive); with MDA-MB-231 it was 19.8 µM (inactive); with EKVX, 26.4 µM (inactive). Also, the GI50 in the experiment on UACC-257 is 22.6 µM (inactive); in the experiment on OVCAR-5, 22.3 µM (inactive); with HT-29, 19.8 µM (inactive); with PC-3, 21.5 µM (inactive); with Malme-3M it was 19.1 µM (inactive); with U-251 it was 17.6 µM (inactive). Moreover, the GI50 in the experiment on SN12C is 17.7 µM (inactive).

On to `O=[N+]([O-])c1sc2ccc(Cl)cc2c1Nc1ccc(Cl)cc1`, for which the GI50 in the experiment on SF-539 was > 100 µM (inactive); in the experiment on HCT-15, over 100 µM; in the experiment with HCC 2998, > 100 µM (inactive); in the experiment with Hs-578T, > 100 µM (inactive); in the experiment with DU-145, > 100 µM (inactive); in the experiment on LOX IMVI, > 100 µM (inactive). Besides, the GI50 in the experiment on A549, with ACHN, in the experiment on SK-MEL-5, with SK-OV-3, in the experiment with MDA-MB-231 and with EKVX was > 100 µM (inactive) each time. Besides, the GI50 with OVCAR-5, in the experiment with HT-29, in the experiment on PC-3, with Malme-3M, in the experiment with U-251 and in the experiment on SN12C was > 100 µM (inactive) each time.
